The record followed here is PubChem BioAssay AID248 (DTP/NCI, 2004).

This assay has as its system L1210 leukemia ip in BDF1 mice, survival T/C. Put plainly: NCI In Vivo Anticancer Drug Screen. Data for tumor model L1210 Leukemia (intraperitoneal) in B6D2F1 (BDF1) mice. The following applies: endpoint: mean survival time, higher = longer survival. A digest of the protocol:
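Ratio derived from survival: compound-dosed mice over vehicle-dosed mice, all bearing a transplantable tumor.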

[1] abbreviates: dose: 100.0 mg/kg/injection, schedule: Q01DX001 (ip), vehicle: carboxymethylcellulose (CMC).
Where [2] appears, read: dose: 200.0 mg/kg/injection, schedule: Q01DX001 (ip), vehicle: carboxymethylcellulose (CMC).
The mark [3] stands for this setting: dose: 100.0 mg/kg/injection, schedule: Q04DX003 (ip), vehicle: saline with Tween-80.
[4] abbreviates: dose: 200.0 mg/kg/injection, schedule: Q04DX003 (ip), vehicle: saline with Tween-80.
The mark [5] stands for this setting: dose: 400.0 mg/kg/injection, schedule: Q04DX003 (ip), vehicle: saline with Tween-80.

Several values for one entry are separate records, joined by “and”; a condition that tells them apart may be missing. Identical values can stand only once. Inconclusive results and toxic doses are left out.

As for `CN(C)CCNS(C)(=O)=O`, the T/C is, setting by setting: (dose: 100.0 mg/kg/injection, schedule: Q01DX009 (ip), vehicle: saline) 105 % of control; (dose: 100.0 mg/kg/injection, schedule: Q04DX003 (ip), vehicle: saline) 98 % of control; (dose: 200.0 mg/kg/injection, schedule: Q01DX009 (ip), vehicle: saline) 105 % of control; (dose: 200.0 mg/kg/injection, schedule: Q04DX003 (ip), vehicle: saline) 100 % of control; (dose: 400.0 mg/kg/injection, schedule: Q01DX009 (ip), vehicle: saline) 109 % of control; (dose: 400.0 mg/kg/injection, schedule: Q04DX003 (ip), vehicle: saline) 100 % of control.

For the compound `Cc1ccc(S(=O)(=O)F)cc1C(=O)O`, the T/C by setting is: under setting [1], 96 % of control and 106 % of control; (dose: 100.0 mg/kg/injection, schedule: Q01DX009 (ip), vehicle: carboxymethylcellulose (CMC)) 93 % of control and 102 % of control; (dose: 100.0 mg/kg/injection, schedule: Q04DX002 (ip), vehicle: gum acacia) 101 % of control and 111 % of control; (dose: 100.0 mg/kg/injection, schedule: Q04DX003 (ip), vehicle: carboxymethylcellulose (CMC)) 93 % of control and 98 % of control; under setting [2], 95 % of control and 100 % of control; (dose: 200.0 mg/kg/injection, schedule: Q01DX009 (ip), vehicle: carboxymethylcellulose (CMC)) 99 % of control and 100 % of control. Also, the T/C by setting is: (dose: 200.0 mg/kg/injection, schedule: Q04DX002 (ip), vehicle: gum acacia) 101 % of control and 104 % of control; (dose: 200.0 mg/kg/injection, schedule: Q04DX003 (ip), vehicle: carboxymethylcellulose (CMC)) 102 % of control; (dose: 400.0 mg/kg/injection, schedule: Q04DX002 (ip), vehicle: gum acacia) 107 % of control; (dose: 400.0 mg/kg/injection, schedule: Q04DX003 (ip), vehicle: carboxymethylcellulose (CMC)) 93 % of control.

Regarding `CC(C)=NN=C(N)N`, the T/C by setting is: (dose: 15.0 mg/kg/injection, schedule: Q01DX Z (ip), vehicle: carboxymethylcellulose (CMC)) 100 % of control; (dose: 15.0 mg/kg/injection, schedule: Q01DX Z (ip), vehicle: saline) 107 % of control; (dose: 30.0 mg/kg/injection, schedule: Q01DX Z (ip), vehicle: carboxymethylcellulose (CMC)) 101 % of control; (dose: 30.0 mg/kg/injection, schedule: Q01DX Z (ip), vehicle: saline) 101 % of control; (dose: 60.0 mg/kg/injection, schedule: Q01DX Z (ip), vehicle: carboxymethylcellulose (CMC)) 96 % of control and 106 % of control; (dose: 60.0 mg/kg/injection, schedule: Q01DX Z (ip), vehicle: saline) 95 % of control. In addition, the T/C is 92 % of control (dose: 60.0 mg/kg/injection, schedule: Q01DX Z (oral), vehicle: saline); 93 % of control and 95 % of control (dose: 120.0 mg/kg/injection, schedule: Q01DX Z (ip), vehicle: carboxymethylcellulose (CMC)); 95 % of control (dose: 120.0 mg/kg/injection, schedule: Q01DX Z (ip), vehicle: saline); 106 % of control (dose: 120.0 mg/kg/injection, schedule: Q01DX Z (oral), vehicle: carboxymethylcellulose (CMC)); 109 % of control (dose: 120.0 mg/kg/injection, schedule: Q01DX Z (oral), vehicle: saline); 101 % of control (dose: 240.0 mg/kg/injection, schedule: Q01DX Z (ip), vehicle: carboxymethylcellulose (CMC)). Moreover, the T/C reads like this: (dose: 240.0 mg/kg/injection, schedule: Q01DX Z (ip), vehicle: saline) 88 % of control; (dose: 240.0 mg/kg/injection, schedule: Q01DX Z (oral), vehicle: carboxymethylcellulose (CMC)) 102 % of control; (dose: 240.0 mg/kg/injection, schedule: Q01DX Z (oral), vehicle: saline) 97 % of control; (dose: 480.0 mg/kg/injection, schedule: Q01DX Z (oral), vehicle: carboxymethylcellulose (CMC)) 116 % of control; (dose: 480.0 mg/kg/injection, schedule: Q01DX Z (oral), vehicle: saline) 92 % of control.

Consider `Oc1c(Br)cc(Br)cc1/C=N/c1nc(-c2ccccc2)cs1.Oc1c(Br)cc(Br)cc1/C=N/c1nc(-c2ccccc2)cs1.[Co]`, for which the T/C is 93 % of control (dose: 100.0 mg/kg/injection, schedule: Q01DX001 (ip), vehicle: saline) and 86 % of control (dose: 400.0 mg/kg/injection, schedule: Q01DX001 (ip), vehicle: saline).

`CC1([N+](=O)[O-])COP(=O)(NCC2CCCO2)OC1` (stereo not drawn): the T/C was 98 % of control (dose: 50.0 mg/kg/injection, schedule: Q01DX001 (ip), vehicle: carboxymethylcellulose (CMC)); 104 % of control under setting [1]; 104 % of control under setting [2]; 93 % of control (dose: 400.0 mg/kg/injection, schedule: Q01DX001 (ip), vehicle: carboxymethylcellulose (CMC)).

As for `CC(OC(=O)Oc1ccccc1)c1ccccc1` (stereo not drawn), the T/C was 98 % of control (dose: 100.0 mg/kg/injection, schedule: Q04DX003 (ip), vehicle: Klucel (hydroxypropylcellulose) (HPC)); 107 % of control (dose: 200.0 mg/kg/injection, schedule: Q04DX003 (ip), vehicle: Klucel (hydroxypropylcellulose) (HPC)); 98 % of control (dose: 400.0 mg/kg/injection, schedule: Q04DX003 (ip), vehicle: Klucel (hydroxypropylcellulose) (HPC)).

As to `O=C(OCc1ccccc1CN1CCOCC1)c1ccc(Br)cc1`, the T/C runs as follows: (dose: 100.0 mg/kg/injection, schedule: Q04DX002 (ip), vehicle: Klucel (hydroxypropylcellulose) (HPC)) 100 % of control; (dose: 200.0 mg/kg/injection, schedule: Q04DX002 (ip), vehicle: Klucel (hydroxypropylcellulose) (HPC)) 92 % of control; (dose: 400.0 mg/kg/injection, schedule: Q04DX002 (ip), vehicle: Klucel (hydroxypropylcellulose) (HPC)) 103 % of control.

For `CC(C)(C)c1cc(C(C)(C)C)c(O)c(C(C)(C)C)c1`, the T/C by setting is: (dose: 100.0 mg/kg/injection, schedule: Q01DX001 (ip), vehicle: saline with Tween-80) 91 % of control; (dose: 100.0 mg/kg/injection, schedule: Q01DX009 (ip), vehicle: saline with Tween-80) 92 % of control; under setting [3], 98 % of control; (dose: 200.0 mg/kg/injection, schedule: Q01DX001 (ip), vehicle: saline with Tween-80) 95 % of control; (dose: 200.0 mg/kg/injection, schedule: Q01DX009 (ip), vehicle: saline with Tween-80) 96 % of control; under setting [4], 98 % of control. The T/C is 87 % of control (dose: 400.0 mg/kg/injection, schedule: Q01DX001 (ip), vehicle: saline with Tween-80); 93 % of control (dose: 400.0 mg/kg/injection, schedule: Q01DX009 (ip), vehicle: saline with Tween-80); 93 % of control under setting [5].

For `CN1CCN=C1c1ccc(NC(=O)Nc2ccc(NC(=O)Nc3ccc(C4=NCCN4C)cc3)cc2)cc1`, the T/C (dose: 6.5 mg/kg/injection, schedule: Q01DX009 (ip), vehicle: other) is 108 % of control; the T/C (dose: 10.0 mg/kg/injection, schedule: Q01DX009 (ip), vehicle: other) was 105 % of control; the T/C (dose: 15.0 mg/kg/injection, schedule: Q01DX009 (ip), vehicle: other) is 118 % of control; the T/C (dose: 22.0 mg/kg/injection, schedule: Q01DX009 (ip), vehicle: other) is 118 % of control; the T/C (dose: 33.0 mg/kg/injection, schedule: Q01DX009 (ip), vehicle: other) is 162 % of control; the T/C (dose: 50.0 mg/kg/injection, schedule: Q01DX009 (ip), vehicle: other) is 227 % of control. The T/C by setting is: (dose: 50.0 mg/kg/injection, schedule: Q01DX009 (ip), vehicle: saline) 191 % of control; (dose: 75.0 mg/kg/injection, schedule: Q01DX001 (ip), vehicle: other) 109 % of control; (dose: 75.0 mg/kg/injection, schedule: Q01DX009 (ip), vehicle: other) 204 % of control; (dose: 75.0 mg/kg/injection, schedule: Q01DX009 (ip), vehicle: saline) 191 % of control; (dose: 112.0 mg/kg/injection, schedule: Q01DX009 (ip), vehicle: other) 111 % of control; (dose: 112.0 mg/kg/injection, schedule: Q01DX009 (ip), vehicle: saline) 197 % of control. In addition, the T/C (dose: 150.0 mg/kg/injection, schedule: Q01DX001 (ip), vehicle: other) was 124 % of control.

For the compound `CCCN(CCC)C(=O)C1C2C=CC(C2)C1C(=O)N(CCC)CCC` (stereo not drawn), the T/C runs as follows: under setting [3], 98 % of control; under setting [4], 111 % of control; under setting [5], 98 % of control.

As to `CNC(=O)Nc1c(O)nc(N)[nH]c1=O`, the T/C is 97 % of control (dose: 37.5 mg/kg/injection, schedule: Q01DX001 (ip), vehicle: saline); 103 % of control (dose: 75.0 mg/kg/injection, schedule: Q01DX001 (ip), vehicle: saline); 105 % of control (dose: 150.0 mg/kg/injection, schedule: Q01DX001 (ip), vehicle: saline).
